Assay results from patent US20180037605A1, “SYNTHETIC PEPTIDES AND ENZYMATIC FORMATION OF INTRACELLULAR HYDROGELS” (BRANDEIS UNIVERSITY, priority 2015, published 2018).
Values after ≈ are worked out from the molar mass of the structure shown.

Key:
T98G cells = experiment: MTT cell viability, T98G; format: cell-based; details: 72 hours incubation
Description: (§3) The cells were seeded in exponential growth phase in a 96 well plate at a concentration of 1×10^4 cell/well with 100 μL of culture medium. Cells were allowed to attach for 24 hours at 37° C., 5% CO2 and then the culture medium was removed with the help of vacuum pump. Culture medium containing the precursors in gradient concentrations was added to each well (0 μM as control). 10 μL of 5 mg/mL MTT ((3-(4,5-Dimethylthiazol-2-yl)-2,5-diphenyltetrazolium bromide) was added to each well after 24 hours, 48 hours, and 72 hours incubation. After 4 hours incubation of the plated cells in dark place, 100 μL 10% SDS with 0.01 M HCl was added to each well to dissolve the purple formazan and to stop the reduction reaction. 24 hours later, the absorbance of the solution at 595 nm was finally measured with a DTX 880 Multimode Detector.

MCF-7 cells = experiment: MTT cell viability, MCF-7; format: cell-based; details: third day (72 h)
Description: as §3

MES-SA cells = experiment: MTT cell viability, MES-SA; format: cell-based; details: third day (72 h)
Description: as §3

MES-SA/D×5 cells = experiment: MTT cell viability, MES-SA/D×5; format: cell-based; details: third day (72 h)
Description: as §3

HCC1937 cells = experiment: MTT cell viability, HCC1937; format: cell-based; details: third day (72 h)
[1] = mouse, in vivo, 20 mg/kg
A2780 cells = experiment: MTT cell viability, A2780; format: cell-based
[2] = Systemic toxicity after intravenous injection in mice; details: 5 to 20 mg/kg, after 7 days
[3] = tested on: co-cultured HS-5 and SKOV3 cells; experiment: Cell viability of co-cultured HS-5 and SKOV3 cells; format: cell-based; details: D-10 37 μg/mL
Description: (§1) 5×10^3 of SKOV3 cells (or A2780cis) and 5×10^3 HS-5 cells per well were seeded together and co-cultured in DMEM medium. Based on the results in FIG. 22, the concentrations of L-10 and D-10 at 73 and 37 μg/mL, respectively, were chosen. […] The inhibitory activities of L-10 and D-10 towards the co-culture agree well with their cytotoxicity against A2780cis, SKOV3, and H-5 cells. […] For example, on the first day, the cell viabilities of co-cultured HS-5 and SKOV3 cells and co-cultured HS-5 and A2780cis cells treated by D-10 (37 μg/mL) were 79% and 80%, respectively. While on the third day, the cell viabilities dropped to 44% and 57%, respectively. […] Contrary to the case of D-10, the efficacies of L-10 were almost the same between day two and day three (FIG. 25A), which agreed with the lower in vivo stability of L-10 than that of D-10.

SKOV3 cells [4] = experiment: LC-MS of cell lysates and culture medium, SKOV3; format: cell-based
Description: (§2) After confirming that CES converts the precursor L-10 or D-10 into the hydrogelator L-12 or D-12, the stability of the precursors (L-10 or D-10) when incubated with the ovarian cancer cells was determined. After culturing the precursors with SKOV3 or A2780cis cells at 37° C. for 4 hours, the cell lysates and culture medium were collected for liquid chromatography-mass spectrometry (LC-MS) analysis and the intracellular concentrations of the precursors, the hydrogelators, and the relevant proteolyzed products were determined. After incubation with SKOV3 or A2780cis cells for 4 hours, more than 85% of the precursors (L-10 or D-10) turned into the corresponding hydrogelators (L-12 or D-12; see Table 1 below).

in vitro = details: human
Description: as §3

HeLa cells = experiment: MTT cell viability, HeLa; format: cell-based; details: third day (72 h)
Description: D-7 and D-10 (FIG. 12A), the enantiomers of L-7 and L-10, were prepared as described in Example 3. HeLa and SKOV3 cells were used in an MTT assay for assessing cytotoxicity of the peptides against these cancer cell lines.

A2780cis cells [5] = tested on: A2780cis cells
PC-12 cells = experiment: MTT cell viability, PC-12 neuronal cells; format: cell-based, rat
Description: as §3

HS-5 cells [6] = details: 72 h
Description: as §3

HS-5 cells [7] = experiment: MTT cell viability, HS-5 stromal cells; details: 20 μM (D-10) and 50 μM (L-10)
Description: as §3

Saos-2 cells = experiment: MTT cell viability, Saos-2; format: cell-based; details: third day (72 h)
Description: as §3

SKOV3 cells [8] = tested on: SKOV3 cells
Description: SKOV3 cells were seeded in exponential growth phase in a 96 well plate at a concentration of 1×10^4 cell/well with 100 μL of McCoy's 5A medium modified supplemented with 10% fetal bovine serum (FBS), 100 U/mL penicillin and 100 μg/ml streptomycin. The cells were allowed to attach to the wells for 24 hours at 37° C., 5% CO2. The culture medium was removed and 100 μL culture medium containing compounds (immediately diluted from fresh prepared stock solution of 10 mM) at gradient concentrations (0 μM as the control) was placed into each well. McCoy's 5A medium modified was regarded as blank. After culturing at 37° C., 5% CO2 for 24 hours, 48 hours, and 72 hours, 10 μL of 5 mg/mL MTT (3-(4,5-Dimethylthiazol-2-yl)-2,5-diphenyltetrazolium bromide) was added to each well, and the plated cells were incubated in dark place for 4 hours. 100 μL 10% SDS with 0.01 M HCl was added to each well to stop the reduction reaction and to dissolve the purple formazan. After incubation of the cells at 37° C. for overnight, the OD at 595 nm of the solution was measured in a microplate reader.
as §3

U87MG cells = experiment: MTT cell viability, U87MG; format: cell-based; details: 72 hours incubation
Description: as §3

A375 cells = experiment: MTT cell viability, A375; format: cell-based; details: third day (72 h)
Description: as §3

HepG2 cells = experiment: MTT cell viability, HepG2; format: cell-based; details: third day (72 h)
Description: as §3

A2780cis cells [9] = experiment: LC-MS of cell lysates, A2780cis; format: cell-based; details: 100 μm D-10
Description: as §2

[10] = tested on: co-cultured HS-5 and A2780cis cells; experiment: Cell viability of co-cultured HS-5 and A2780cis cells; format: cell-based; details: D-10 37 μg/mL
Description: as §1

[11] = combination of D-10 and CP, 72 hours
[12] = SKOV3 cell lysates, 4 hours, 37° C., 20 μm D-10 or 50 μm L-10

For `O=C(CCC(=O)OCCNC(=O)[C@@H](Cc1ccccc1)NC(=O)[C@@H](Cc1ccccc1)NC(=O)Cc1ccc2ccccc2c1)NCCS(=O)(=O)O` [D-10], the “IC50, T98G” value (T98G cells) was 145 µg/mL (≈ 198 µM), the “IC50, MCF-7” value (MCF-7 cells) was 25 µg/mL (≈ 34.2 µM) and the “IC50, MES-SA” value (MES-SA cells) was 31 µg/mL (≈ 42.4 µM). For the same molecule, the “IC50, MES-SA/D×5” value (MES-SA/D×5 cells) was 163 µg/mL (≈ 223 µM), the “IC50, HCC1937” value (HCC1937 cells) was 26 µg/mL (≈ 35.6 µM) and the tolerability [1] was “well tolerated”. For the same molecule, the “viability of A2780 cells, combination with CP” value (A2780 cells; [11]) was 9%, the “IC50, A2780” value (A2780 cells; third day (72 h)) was 37 µg/mL (≈ 50.6 µM) and the “effect on weight and organ index of mice” value [2] was “hardly affected”. The “cell viability of co-cultured HS-5 and SKOV3 cells” value ([3]; first day) was 79%, the “cell viability of co-cultured HS-5 and SKOV3 cells” value ([3]; third day) was 44% and the “cumulative intracellular concentration of precursor and hydrogelator relative to incubation concentration” value (SKOV3 cells [4]; 4 hours incubation) was “about 5 fold”. The “Ratio of hydrogelator to precursor after 4 hours” value (SKOV3 cells [4]; SKOV3 cell lysates, 20 μm D-10 or 50 μm L-10) was 6.75, the “Hydrogelator (12) intracellular concentration” value (SKOV3 cells [4]; [12]) was 108 μm and the “Precursor (10) intracellular concentration” value (SKOV3 cells [4]; [12]) was 16 μm. The viability at 3 day, 37 μg/mL (in vitro) was roughly 80%, the “IC50, HeLa” value (HeLa cells) was 27 µg/mL (≈ 36.9 µM) and the “inhibition of A2780cis cells by combination with CP” value (A2780cis cells [5]; [11]) was 70%. For the same molecule, the “IC50, A2780cis” value (A2780cis cells [5]; third day (72 h)) was 36 µg/mL (≈ 49.3 µM), the “inhibition of PC-12 cells” value (PC-12 cells; 20 μM (D-10) and 50 μM (L-10)) was “hardly inhibited” and the “IC50, PC-12” value (PC-12 cells; third day (72 h)) was 62 µg/mL (≈ 84.8 µM). For the same molecule, the “IC50, HS-5” value (HS-5 cells [6]) was 50 µg/mL (≈ 68.4 µM), the “inhibition of HS-5 cells” value (HS-5 cells [7]) was “hardly inhibited” and the “IC50, Saos-2” value (Saos-2 cells) was 44 µg/mL (≈ 60.2 µM). For the same molecule, the “inhibition of SKOV3 ovarian cancer cells” value (SKOV3 cells [8]; 48 h, 50 μM) was “over 70%”, the “IC50, SKOV3” value (SKOV3 cells [8]; 72 h) was 31 µg/mL (≈ 42.4 µM) and the “inhibition of SKOV3 cells by mixture with CP” value (SKOV3 cells [8]; 72 h, 15 μg/mL) was “about 74%”. For the same molecule, the “viability of SKOV3 cells” value (SKOV3 cells [8]; human, 72 hours, 37 μg/mL) was 10%, the “IC50, U87MG” value (U87MG cells) was 126 µg/mL (≈ 172 µM) and the “IC50, A375” value (A375 cells) was 38 µg/mL (≈ 52 µM). For the same molecule, the “IC50, HepG2” value (HepG2 cells) was 88 µg/mL (≈ 120 µM), the “Ratio of hydrogelator to precursor after 4 hours” value (A2780cis cells [9]) was 8.43 and the “Hydrogelator (12) intracellular concentration” value (A2780cis cells [9]; 4 hours, 37° C.) was 582 μm. For the same molecule, the “Precursor (10) intracellular concentration” value (A2780cis cells [9]; 4 hours, 37° C.) was 69 μm, the “cell viability of co-cultured HS-5 and A2780cis cells” value ([10]; first day) was 80% and the “cell viability of co-cultured HS-5 and A2780cis cells” value ([10]; third day) was 57%.
